Experimental data from patent US8980077B2, “Plating bath and method” (Rohm and Haas Electronic Materials LLC, priority 2012, dated 2015).
In brackets after ≈: the same amount, converted by molar mass.

Tests used:
[1] = Solubility in 17% methane sulfonic acid (MSA)/DI water solution; conditions: aqueous with cosolvent or surfactant or cyclodextrin, thermodynamic from solid
Description: (§2) If a compound dissolved, then an additional 25 mg (in increments) of that compound was added until either no more would dissolve or 250 mg were dissolved in the 5 mL.

[2] = Stability in 17% MSA/water at 50° C., visual inspection for precipitation; conditions: for Stability (at 50° C.): 5 mg in 1 mL 17% MSA/water, time without precipitation; for Stability compared with Comparatives 1 and 2: 17% MSA/water
Description: The stability of various compounds was determined as follows: 5 mg of a compound was dissolved into 1 mL of 17% MSA/water solution and placed in a glass vial. Each vial was capped and placed in a dry heating bath at 50° C. for up to three weeks. Each sample was periodically removed from the bath and visually inspected for evidence of precipitation.

[3] = Stability Test 1: DI water solution plus aqueous MSA (70%), 50° C. oven, visual inspection for precipitate; assay type: physicochemical; conditions: 5.96 mg/mL in DI water plus aqueous MSA (70%)
Description: (§1) The stability of Compound 6 and Comparative 1 were determined using 2 different tests. In Test 1, solutions of each of Compound 6 and Comparative 1 dissolved in DI water (at a concentration of 5.96 mg/mL) were placed in separate vials. To each vial was added aqueous MSA (70%), the vials were then capped, placed in a 50° C. oven, and periodically visually inspected for the formation of precipitate. […] In Test 2, solutions of each of Compound 6 and Comparative 1 dissolved in D2O (at a concentration of 5.96 mg/mL) were placed in separate NMR tubes. A ^1H NMR (400 MHz) spectrum was obtained for each solution. Next, a solution of MSA (70%) dissolved in D2O was prepared and added to each NMR tube. A second ^1H NMR spectrum was immediately taken of each sample. Next, the NMR tubes were placed in a 50° C. oven, and periodically removed, analyzed by ^1H NMR, and returned to the oven.

[4] = Stability Test 2: D2O solution plus MSA (70%), 50° C. oven, 1H NMR; assay type: physicochemical
Description: as §1

[5] = Extended storage or long-term use in tin-silver electroplating bath (prior-art complexers); assay type: physicochemical
From the text: U.S. Pat. No. 6,998,036 discloses an acidic tin-silver alloy electroplating bath containing a certain sulfide or thiol-substituted ether compound.
U.S. Pat. No. 7,628,903 discloses conventional silver and silver-alloy electroplating baths containing certain sulfide compounds. This patent purports that these electroplating baths have good stability.

physchem = conditions: aqueous with cosolvent or surfactant or cyclodextrin, thermodynamic from solid
Description: as §2

Row | SMILES | solubility [1] [mg/mL] | Stability (at 50° C.) [2] | other results
1 | O=C(O)CC(SCSC(CC(=O)O)C(=O)O)C(=O)O (stereo not drawn) [Compound 9, 2,2′-(Methylenebis(sulfanediyl))disuccinic acid] | ~10 (≈ 32 mM) | >3 weeks | –
2 | O=S(=O)(O)CCSCCSCCS(=O)(=O)O [Compound 4, 2,2′-(Ethane-1,2-diylbis(sulfanediyl))diethanesulfonic acid] | > 60 | – | –
3 | OCCSCCSCCO [Comparative 1, 2,2′-[1,2-ethanediylbis(thio)]bis-ethanol, reference compound] | 30 to 35 (≈ 165 to 192 mM) | <24 h | Formation of precipitate (Test 1, visual inspection) ([3]; after 60 hours): a copious amount of a white, flocculent precipitate; Change of 1H NMR spectrum (Test 2) ([4]; 5.96 mg/mL in D2O, immediately upon addition of the MSA solution): loss of the ^1H NMR spectrum; Behaviour upon extended storage or long term use in the electroplating bath [5]: polymerize
4 | O=C(O)CSCSCC(=O)O [Compound 8, 2,2′-(Methylenebis(sulfanediyl))diacetic acid] | > 50 | >3 weeks | –
5 | OCCCSCCSCCCO [Compound 6, 3,3′-[1,2-Ethanediylbis(thio)]bis-1-propanol] | – | >3 weeks | Formation of precipitate (Test 1, visual inspection) ([3]; after 120 hours): no precipitate formation; Change of 1H NMR spectrum (Test 2) ([4]; 5.96 mg/mL in D2O plus MSA (70%), 50° C., after 7 days): no change in the ^1H NMR spectrum; solubility (physchem): 5 mg/mL (≈ 23.8 mM); Stability compared with Comparatives 1 and 2 [2]: significantly better
6 | O=C(O)CSCCSCC(=O)O [Compound 3, 2,2′-(Ethane-1,2-diylbis(sulfanediyl))diacetic acid] | 30 (≈ 143 mM) | – | –
7 | OCCSCSCCO [Comparative 2, 2,2′-(Methylenebis(sulfanediyl))diethanol, reference compound] | > 50 | <1 week | –

Continued, in another order:

Row | solubility [1] [mg/mL] | Stability (at 50° C.) [2] | SMILES | other results
8 | > 60 | – | O=S(=O)(O)CCCSCCSCCCS(=O)(=O)O [Compound 5, 3,3′-(ethane-1,2-diylbis(sulfanediyl))bis(propane-1-sulfonic acid)] | –
9 | > 50 | >3 weeks | O=C(O)CSCCCSCC(=O)O [Compound 10, 2,2′-(Propane-1,3-diylbis(sulfanediyl))diacetic acid] | –
10 | < 5 | – | O=C(O)CCSCCSCCC(=O)O [Compound 2, 3,3′-(Ethane-1,2-diylbis(sulfanediyl))dipropanoic acid] | –
11 | > 50 | >3 weeks | OCCCSCSCCCO [Compound 7, 3,3′-(Methylenebis(sulfanediyl))dipropanol] | Stability compared with Comparatives 1 and 2 [2]: significantly better
12 | > 50 | >3 weeks | O=S(=O)(O)CCSCCCSCCS(=O)(=O)O [Compound 11, 2,2′-(Propane-1,3-diylbis(sulfanediyl))diethyl sulfonate] | –
13 | < 5 | – | NC(=O)CCSCCSCCC(N)=O [Compound 1, 3,3′-(Ethane-1,2-diylbis(sulfanediyl))dipropanamide] | –
14 | > 50 | >3 weeks | O=S(=O)(O)CCCSCCCSCCCS(=O)(=O)O [Compound 12, 3,3′-(Propane-1,3-diylbis(sulfanediyl))dipropyl sulfonate] | –
